Reference: PubChem BioAssay (NCI)
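48-hour exposure; five concentrations; linearly interpolated endpoints. TGI: total growth inhibition.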 *1 amine or outer side, *2 acyl side, *3 side chain or, on linkers, in order; H or OH if unused. Where a SMILES comes first, the peptide text is derived from it. [ ]: non-standard residue; d: D form. X32 = C[C@H](N[*:1])C(=O)C(C)(C)C(=O)[*:2]; Hmpa(2S,3S) = CC[C@H](C)[C@H](O)C(=O)O; NMeY = CN[C@@H](Cc1ccc(O)cc1)C(=O)O; NMeL = CN[C@@H](CC(C)C)C(=O)O; NMeV = CN[C@H](C(=O)O)C(C)C; βAla = NCCC(=O)O

Experiments:
Assay in all cases: DTP human tumour cell line panel, 48 h
A498 renal = system: A498 renal
CAKI-1 renal = system: CAKI-1 renal
COLO 205 colon = system: COLO 205 colon
DU-145 prostate = system: DU-145 prostate
MOLT-4 leukemia = system: MOLT-4 leukemia
NCI/ADR-RES ovarian = system: NCI/ADR-RES ovarian
RXF 393 renal = system: RXF 393 renal
SK-MEL-5 melanoma = system: SK-MEL-5 melanoma
SR leukemia = system: SR leukemia
T-47D breast = system: T-47D breast
TK-10 renal = system: TK-10 renal
UO-31 renal = system: UO-31 renal

SMILES | TGI (A498 renal) [µM] | TGI (CAKI-1 renal) [µM] | TGI (COLO 205 colon) [µM] | TGI (DU-145 prostate) [µM] | TGI (MOLT-4 leukemia) [µM] | TGI (NCI/ADR-RES ovarian) [µM] | TGI (RXF 393 renal) [µM] | TGI (SK-MEL-5 melanoma) [µM] | TGI (SR leukemia) [µM] | TGI (T-47D breast) [µM] | TGI (TK-10 renal) [µM] | TGI (UO-31 renal) [µM]
Nc1onc2c1Cc1c(noc1N)-c1ccccc1-2 | 72.2 | > 100 | > 100 | > 100 | > 100 | > 100 | > 100 | > 100 | > 100 | > 100 | > 100 | > 100
C=C(Br)CNC(=O)CCC(=O)NCC(=C)Br | > 100 | > 100 | > 100 | > 100 | > 100 | > 100 | > 100 | > 100 | > 100 | > 100 | > 100 | > 100
NC(N)=Nc1ccc(CC(N)C(=O)O)cc1 (configuration not stated) | > 12.5 | > 12.5 | > 12.5 | > 12.5 | > 12.5 | > 12.5 | > 12.5 | > 12.5 | > 12.5 | > 12.5 | > 12.5 | > 12.5
CC[C@H](C)[C@@H]1OC(=O)CCNC(=O)[C@@H](C)NC(=O)C(C)(C)C(=O)[C@H](C)NC(=O)[C@H](Cc2ccc(OC)cc2)N(C)C(=O)[C@H](C(C)C)N(C)C(=O)CNC(=O)[C@H](CC(C)C)N(C)C(=O)CNC1=O (cyclo(G[NMeL]G[NMeV][NMeY](Me)[X32][dA][βAla][Hmpa(2S,3S)])) | 5.91 | 6.49 | 0.0545 | > 39.2 | > 26.9 | > 50 | 2 | 0.228 | > 25.9 | > 50 | 8 | 16
CC(=O)Nc1ccc(C2SCc3nc4ccccc4n32)cc1 (configuration not stated) | 28.6 | > 100 | > 100 | > 100 | > 100 | > 100 | > 100 | > 100 | > 100 | > 100 | > 100 | > 100
CCOC(=O)C(SCCO)C(C(=O)OCC)n1ccc(=O)[nH]c1=O (configuration not stated) | > 100 | 39.5 | > 59.3 | > 100 | 21.7 | > 69.4 | 81.4 | > 100 | 34 | > 100 | > 100 | > 100
